Test results taken from patent publication US20100105689A1, “NOVEL 1,4- AND 1,5-DIARYLSUBSTITUTED 1,2,3-TRIAZOLES USEFUL AS POTASSIUM CHANNEL MODULATORS” (priority 2007, published 2010).

Tests used:
[1] = molecular target: T1, BK channels heterologously expressed in Xenopus laevis oocytes (Homo sapiens, UniProt Q12791); experiment: BK channel opening activity, two-electrode voltage clamp in oocytes; type: cell-based; conditions: Compound at 30 μM, step from −40 mV to +30 mV, added after a stable current level was reached, FIG. 1
T1 construct: expressed in transfected cells; host or cells: Xenopus laevis oocytes
Method: In this example the BK channel opening activity of a 1,5-diarylsubstituted 1,2,3-triazole derivative for use according to the invention, i.e. CMPD-2 (herein designated Compound A), is determined using BK channels heterologously expressed in Xenopus laevis oocytes.
The electrical current through the BK channel is measured conventional two-electrode voltage clamp. BK current is activated by repeated step protocols. In brief, this protocol goes from a resting membrane potential of −40 mV lasting for 5 s to a depolarised step to +30 mV lasting for 1 s. The protocol was repeated continuously.
Having reached a stable current level, Compound A (30 μM), was added.

T1 sequence (Q12791 whole entry): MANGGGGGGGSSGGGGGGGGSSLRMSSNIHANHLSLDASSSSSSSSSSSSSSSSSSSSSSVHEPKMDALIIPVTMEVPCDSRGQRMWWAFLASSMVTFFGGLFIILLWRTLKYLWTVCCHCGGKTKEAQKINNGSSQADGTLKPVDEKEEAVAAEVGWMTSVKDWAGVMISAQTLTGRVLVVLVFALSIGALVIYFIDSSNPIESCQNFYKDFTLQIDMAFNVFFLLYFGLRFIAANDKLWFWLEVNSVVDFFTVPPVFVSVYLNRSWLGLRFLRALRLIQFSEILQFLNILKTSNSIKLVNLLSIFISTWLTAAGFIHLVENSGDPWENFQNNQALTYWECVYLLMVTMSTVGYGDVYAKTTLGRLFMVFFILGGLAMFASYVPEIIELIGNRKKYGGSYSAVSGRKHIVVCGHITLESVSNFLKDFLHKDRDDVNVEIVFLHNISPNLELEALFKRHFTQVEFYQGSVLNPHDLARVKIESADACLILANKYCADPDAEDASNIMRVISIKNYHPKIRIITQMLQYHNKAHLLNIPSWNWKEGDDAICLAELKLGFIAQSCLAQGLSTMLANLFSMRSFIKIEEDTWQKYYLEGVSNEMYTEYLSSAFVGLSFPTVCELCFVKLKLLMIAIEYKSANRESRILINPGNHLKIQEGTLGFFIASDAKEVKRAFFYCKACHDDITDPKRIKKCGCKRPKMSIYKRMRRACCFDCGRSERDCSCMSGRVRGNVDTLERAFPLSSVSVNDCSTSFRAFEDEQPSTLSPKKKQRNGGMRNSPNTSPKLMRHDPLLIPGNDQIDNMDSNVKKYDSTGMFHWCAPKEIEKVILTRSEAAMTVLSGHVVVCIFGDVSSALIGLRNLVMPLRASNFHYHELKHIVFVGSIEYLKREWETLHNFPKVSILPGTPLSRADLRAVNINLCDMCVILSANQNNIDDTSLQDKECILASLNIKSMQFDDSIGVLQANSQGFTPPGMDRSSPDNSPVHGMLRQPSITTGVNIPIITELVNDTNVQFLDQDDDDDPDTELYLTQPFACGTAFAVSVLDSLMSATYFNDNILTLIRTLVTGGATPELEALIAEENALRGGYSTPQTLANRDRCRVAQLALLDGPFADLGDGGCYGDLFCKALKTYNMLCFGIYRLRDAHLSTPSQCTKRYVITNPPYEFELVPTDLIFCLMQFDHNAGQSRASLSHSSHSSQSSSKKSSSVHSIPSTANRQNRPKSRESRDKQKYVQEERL

melting point [°C]	BK current activated by depolarisation (BK channel opening activity) [1]	Compound
230.5 to 232.1	–	FC(F)(F)c1cccc(-c2cnnn2-c2cc(Cl)ccc2-c2nnn[nH]2)c1 [CMPD-3, 5-{4-Chloro-2-[5-(3-trifluoromethyl-phenyl)-[1,2,3]triazol-1-yl]-phenyl}-1H-tetrazole]
181.1 to 183.6	–	FC(F)(F)c1cccc(-c2cnnn2-c2cc(Cl)ccc2OCc2nnn[nH]2)c1 [CMPD-6, 5-{4-Chloro-2-[5-(3-trifluoromethyl-phenyl)-[1,2,3]triazol-1-yl]-phenoxymethyl}-1H-tetrazole]
–	marked increase	FC(F)(F)c1ccc(-c2ccc(-n3nncc3-c3cc(C(F)(F)F)cc(C(F)(F)F)c3)c(-c3nnn[nH]3)c2)cc1 [Compound A, 5-{4-[5-(3,5-Bis-trifluoromethyl-phenyl)-[1,2,3]triazol-1-yl]-4′-trifluoromethyl-biphenyl-3-yl}-1H-tetrazole]
